# Data as given in patent EP0984967B1, “NAPHTHYRIDINE DERIVATIVES AND THEIR ANALOGUES INHIBITING CYTOMEGALOVIRUS” (BIOCHEM PHARMA INC, priority 1996, dated 1997).
# Tests used:
# Type in all cases: cell-based
# [1] = Cytotoxicity assay ([3H]-methyl thymidine incorporation, cell proliferation); settings: vero-34, hs-68 or wi-38; for CC50 at 48 h: 50% inhibitory concentration of cell proliferation, 48 hours with compound then 18 hours [3H]-methyl thymidine, cell line not given
# Description: (§1) The cytotoxicity of test compounds was evaluated according to the following procedure: Flat bottom 96 well plates were plated with 5X10E3 Vero-34 cells/well and 1X10E4 Hs-68 or Wi-38 cells/well respectively and incubated overnight at 37°C and 5% CO2/air. After incubation, the supernatant medium was removed and replaced with test compound dilutions in 2% DMEM (150ul). The cells were then incubated 48 hours in a 5% CO2 incubator at 37°C. […] Cells were then collected onto a fiberglass filter (Printed Filtermat A 1450-421 Wallac) with a Tomtec cell harvester. Suspended cells were collected directly onto filter while for adherent cells, the medium was first removed, then the cells washed with PBS and trypsinized for 2-3 minutes (50µl trypsin/well) before collecting. Filters were dried for 1 hour at 37-40°C and then placed into bags (1450-microbeta # 1450-432 Wallac) with 4.5ml of Betascint and counts obtained with Microbeta 1450 Wallac (protocol 1). The percent of cell proliferation was determined by comparison to the control (no test compound) and thereby establishing 50% inhibitory concentration is established.
# HCMV virus = test: CMV plaque reduction assay
# Description: The anti-CMV activity of test compounds was evaluated in a plaque reduction assay as follows: In 12-well tissue culture dishes, 1.5X10E5 or Hs68 cells (human […] fibroblast cell line) were plated per well with 2 ml of DMEM 10% fetal bovine serum and incubated in 5% CO2/air at 37°C overnight or until cells were ready. The medium was then removed and the cells inoculated with 0.5 ml (containing 200 pfu/ml diluted in DMEM 2% FBS) of HCMV virus in each well. After adsorption at 37°C for 2 hours, the virus was removed and cell monolayers were overlaid (1ml) with DMEM 2% FBS containing test compounds at various concentrations. The cells were then incubated at 37°C for 8 days, and then fixed with one volume (1ml) of formaldehyde 8%/water or PBS 1X for 30 minutes. The formaldehyde solution was removed and the cell monolayers were stained with crystal violet 2%/EtOH 20% for a few seconds and then rinsed with water. Monolayers were examined for the presence of plaques under a microscope, the percentage of plaque reduction determined for each compound by comparison with the untreated cells (no test compound) and the 50% inhibitory concentration (IC50) established. Ganciclovir was used as a positive control. Note: DMEM medium contained 1% glutamine and 1% pen/strep
# [2] = test system: Vero-34 cells, Hs-68 or Wi-38 cells; test: Cytotoxicity assay ([3H]-methyl thymidine incorporation, cell proliferation); settings: 50% inhibitory concentration of cell proliferation, 48 hours with compound then 18 hours [3H]-methyl thymidine; cell line not given
# Description: as §1
# [3] = Human betaherpesvirus 5, 192 h, plaque reduction, HCMV in Hs68 cells (human foreskin fibroblast cell line), 8 days at 37°C
"IC50 (HCMV virus; Human betaherpesvirus 5, positive control tested in tandem with the compounds, plaque reduction assay)",Molecule,CC50 at 48 h [1],IC50 (HCMV virus; [3]),"CC50 ([1]; positive control tested in tandem with the compounds, value varied between runs)",CC50 [2]
–,"O=C(N[C@@H]1C[C@H]1c1ccccc1)c1ccc2cnccc2n1 (relative stereo) [compound #15, [1,6]naphthyridine-2-carboxylic acid (trans-2-phenyl-cyclopropyl)-amide]",~25 µg/mL,1 to 10 µg/mL,–,–
–,"Cc1ccccc1NC(=O)Nc1ccc2cnccc2n1 [compound 56, 1-(2-methyl-phenyl)-3-[1,6]naphthyridin-2-yl-urea]",> 100 µg/mL,–,–,–
–,"CC(C)Oc1ccccc1CNC(=O)c1ccc2cncc(-c3ccccn3)c2n1 [compound 57, 8-(2-pyridyl)-[1,6]naphthyridine-2-carboxylic acid (2-isopropoxybenzylamine)]",6 to 12.5 µg/mL,0.1 to 1 µg/mL,–,–
–,"Cc1ccccc1CNC(=O)c1ccc2cnccc2n1 [compound #1, N-(2-methylbenzyl)-2-(1,6)naphthyridinecarboxamide]",50 to 75 µg/mL,~1 µg/mL,–,–
–,"O=C(NCc1ccccc1)c1ccc2cnccc2n1 [compound #2, N-benzyl-2-(1,6)naphthyridinecarboxamide]",~50 µg/mL,~1 µg/mL,–,–
–,"O=C(NCc1ccc(Br)cc1)c1ccc2cnccc2n1 [compound #3, N-(4-bromobenzyl)-2-(1,6)naphthyridi necarboxamide]",10 to 50 µg/mL,10 to 50 µg/mL,–,–
–,"O=C(NCc1ccccc1Cl)c1ccc2cnccc2n1 [compound #4, N-(2-chlorobenzyl)-2-(1,6)naphthyridinecarboxamide]",~100 µg/mL,0.5 to 1 µg/mL,–,–
–,"O=C(NCc1ccccc1Br)c1ccc2cnccc2n1 [compound #5, N-(2-bromobenzyl)-2-(1,6)naphthyridinecarboxamide]",> 100 µg/mL,0.5 to 1 µg/mL,–,–
–,"O=C(NCc1cccc(Br)c1)c1ccc2cnccc2n1 [compound #6, N-(3-bromobenzyl)-2-(1,6)naphthyridinecarboxamide]",~50 µg/mL,1 to 5 µg/mL,–,–
–,"O=C(NCc1ccccc1F)c1ccc2cnccc2n1 [compound #7, N-(2-fluorobenzyl)-2-(1,6)naphthyridinecarboxamide]",~100 µg/mL,< 5 µg/mL,–,–
–,"O=C(NCc1ccc(Cl)cc1)c1ccc2cnccc2n1 [compound #8, N-(4-chlorobenzyl)-2-[1,6]naphthyridinecarboxamide]",6.25 to 10 µg/mL,1 to 10 µg/mL,–,–
–,"CCOc1ccccc1CNC(=O)c1ccc2cnccc2n1 [compound #9, N-(2-ethyloxybenzyl)-2-(1,6)naphthyridinecarboxamide]",~6.25 µg/mL,~0.1 µg/mL,–,–
–,"COc1cccc(CNC(=O)c2ccc3cnccc3n2)c1 [compound #12, N-(3-methoxybenzyl)-2-(1,6)naphthyridinecarboxamide]",> 100 µg/mL,< 5 µg/mL,–,–
–,"O=C(NCc1ccccc1C(F)(F)F)c1ccc2cnccc2n1 [compound #13, N-(2-trifluoromethylbenzyl)-2-(1,6)naphthyridinecarboxamide]",> 100 µg/mL,< 5 µg/mL,–,–
–,"COc1cccc(OC)c1CNC(=O)c1ccc2cnccc2n1 [compound #14, N-(2,6-dimethoxybenzyl)-2-(1,6)naphthyridinecarboxamide]",> 100 µg/mL,< 5 µg/mL,–,–
–,"Nc1cccc(F)c1CNC(=O)c1ccc2cnccc2n1 [compound #16, N-(2-amino-6-fluorobenzyl)-2-[1,6]naphthyridinecarboxamide]",~25 µg/mL,1 to 10 µg/mL,–,–
–,"CC(NC(=O)c1ccc2cnccc2n1)c1ccccc1 (centres unmarked) [compound #17, [1,6]naphthyridine-2-carboxylic acid (1-phenyl-ethyl) amide]",25 to 50 µg/mL,0.1 to 1 µg/mL,–,–
–,"O=C(NCc1ccccn1)c1ccc2cnccc2n1 [compound #18, [1,6]naphthyridine-2-carboxylic acid (pyridine-2-ylmethyl) amide]",> 100 µg/mL,5 to 25 µg/mL,–,–
–,O=C(NCC1CCCCC1)c1ccc2cnccc2n1 [compound #19],25 to 50 µg/mL,1 to 10 µg/mL,–,–

"IC50 (HCMV virus; Human betaherpesvirus 5, positive control tested in tandem with the compounds, plaque reduction assay)",Molecule,CC50 at 48 h [1],IC50 (HCMV virus; [3]),"CC50 ([1]; positive control tested in tandem with the compounds, value varied between runs)",CC50 [2]
–,"O=C(c1ccc2cnccc2n1)N1CCc2ccccc2C1 [compound #20, (3,4-dihydro-1h-isoquinolin-2-yl)-[1,6]naphthyridin-2-yl-methanone]",> 100 µg/mL,5 to 25 µg/mL,–,–
–,"CSc1ccccc1CNC(=O)c1ccc2cnccc2n1 [compound #21, N-(2-methylthiobenzyl)-2-[1,6]naphthyridine carboxamide]",~50 µg/mL,1 to 10 µg/mL,–,–
–,"O=C(NCc1ccccc1O)c1ccc2cnccc2n1 [compound #22, N-(2-hydroxybenzyl)-2-(1,6)naphthyridinecarboxamide]",25 to 100 µg/mL,< 5 µg/mL,–,–
–,"COC(=O)c1ccccc1CNC(=O)c1ccc2cnccc2n1 [compound #23, N-(2-methoxycarbonylbenzyl)-2-(1,6)naphthyridinecarboxamide]",> 100 µg/mL,< 5 µg/mL,–,–
–,"C=CCNC(=O)c1ccc2cnccc2n1 [compound #24, (1,6)naphthyridine-2-carboxylic acid allylamide]",10 to 100 µg/mL,5 to 10 µg/mL,–,–
–,"CCNc1ccccc1CNC(=O)c1ccc2cncc(Br)c2n1 [compound #33, 8-bromo-[1,6]naphthyridine-2-carboxylic acid (2-N-ethylaminobenzylamine)]",6.25 to 12.5 µg/mL,< 0.01 µg/mL,–,–
–,"CC(C)Oc1ccccc1CNC(=O)c1ccc2cncc(Br)c2n1 [compound #34, 8-bromo-[1,6]naphthyridine-2-carboxylic acid (2-isopropoxybenzylamine)]",~12.5 µg/mL,0.1 to 1 µg/mL,–,–
–,"COc1ccccc1CNC(=O)c1ccc2cncc(Br)c2n1 [compound #35, 8-bromo-[1,6]naphthyridine-2-carboxylic acid (2-methoxybenzylamine)]",~12.5 µg/mL,~0.01 µg/mL,–,–
–,"CC(C)Oc1ccccc1CNC(=S)c1ccc2cnccc2n1 [compound #40, [1,6]Naphthyridine-2-thiocarboxylic acid-2-isopropoxybenzylamine]",12.5 to 25 µg/mL,0.1 to 1 µg/mL,–,–
–,"COc1cccc(CNC(=S)c2ccc3cnccc3n2)c1 [compound #41, [1,6]Naphthyridine-2-thiocarboxylic acid-3-methoxybenzylamine]",25 to 50 µg/mL,1 to 10 µg/mL,–,–
–,"CC(C)Oc1ccccc1NC(=O)Nc1ccc2cnccc2n1 [compound #46, 1-(2-iso-propoxy-phenyl)-3-[1,6]naphthyridin-2-yl-urea]",~25 µg/mL,~0.01 µg/mL,–,–
–,"CC(C)Oc1ccccc1CNC(=O)Nc1ccc2cnccc2n1 [compound #47, 1-(2-iso-propoxybenzyl)-3-[1,6]naphthyridin-2-yl-urea]",25 to 50 µg/mL,0.01 to 0.1 µg/mL,–,–
–,"CC(C)(C)OC(=O)NCCCCNC(=O)Nc1ccc2cnccc2n1 [compound #48, 1-(N-boc-4-aminobutyl)-3-[1,6]naphthyridin-2-yl-urea]",3.15 to 6.25 µg/mL,0.1 to 1 µg/mL,–,–
–,"Cl.NCCCCNC(=O)Nc1ccc2cnccc2n1 [compound #49, 1-(4-aminobutyl)-3-[1,6]naphthyridin-2-yl-urea hydrochloride]",6.25 to 12.5 µg/mL,1 to 5 µg/mL,–,–
–,"C[C@H](NC(=O)Nc1ccc2cnccc2n1)c1ccccc1 [compound #50, 1-[(S)-α-methylbenzyl]-3-[1,6]naphthyridin-2-yl-urea]",12.5 to 25 µg/mL,1 to 10 µg/mL,–,–
–,"C[C@@H](NC(=O)Nc1ccc2cnccc2n1)c1ccccc1 [compound #51, 1-[(R)-α-methylbenzyl]-3-[1,6]naphthyridin-2-yl-urea]",< 3.15 µg/mL,0.01 to 0.1 µg/mL,–,–
–,"CCCCNC(=O)Nc1ccc2cnccc2n1 [compound #53, 1-butyl-3-[1,6]naphthyridin-2-yl-urea]",2.5 to 5 µg/mL,0.1 to 1 µg/mL,–,–
0.1 to 0.5 µg/mL,"Nc1nc(O)c2ncn(COC(CO)CO)c2n1 [ganciclovir, reference compound]",–,–,10 to 200 µg/mL,–
–,"N-(2propoxybenzyl)-2-[1,6]naphthyridine-2-carboxamide [compound #26]",–,–,–,~1.5 µg/mL
